From PubChem BioAssay AID1332 (Southern Research Institute, 2008) come the findings set out here.

Values after ≈ are worked out from the molar mass of the structure shown.

The assay relates to M. tuberculosis H37Rv growth inhibition. The experiment in a line: Confirmatory growth inhibition assay, mycobacterium tuberculosis h37rv, with cytotoxicity (AID 1332).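 Further: bacteria incubated 7 days before adding Alamar blue readout reagent.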

By IC90 is commonly meant the concentration needed for an effect of 90%. Consider `CC[C@H]1OC(=O)[C@H](C)[C@@H](OC2C[C@@](C)(OC)[C@@H](O)[C@H](C)O2)[C@H](C)[C@@H](O[C@@H]2O[C@H](C)C[C@H](N(C)C)[C@H]2O)[C@](C)(O)C[C@@H](C)/C(=N\OCOCCOC)[C@H](C)[C@@H](O)[C@]1(C)O` (stereo partly drawn), for which the IC90 was 11.5 µg/mL (≈ 13.7 µM).
`N=C(N)c1ccc(OCCCCCOc2ccc(C(=N)N)cc2)cc1`: the 90% effect concentration (IC90) was 1.68 µg/mL (≈ 4.93 µM).
As to `O=C1CN(/N=C/c2ccc([N+](=O)[O-])o2)C(=O)N1`, the concentration for an effect of 90% (IC90) is 3.92 µg/mL (≈ 16.5 µM).
In the case of `CSc1ccc2c(c1)N(CCC1CCCCN1C)c1ccccc1S2` (stereo not drawn), the IC90 was 3.01 µg/mL (≈ 8.13 µM).
As for `CNCCCC12CCC(c3ccccc31)c1ccccc12`, the 90% effect concentration (IC90) was 17.9 µg/mL (≈ 64.5 µM).
In the case of `Cc1cc(C=Cc2ccc3cc(N(C)C)ccc3[n+]2C)c(C)n1-c1ccccc1` it was 0.195 µg/mL; in that of `CC(=O)N1CCN(c2ccc(OC[C@H]3CO[C@](Cn4ccnc4)(c4ccc(Cl)cc4Cl)O3)cc2)CC1`, 2.49 µg/mL (≈ 4.69 µM); in that of `C=C1C(=O)O[C@@H]2[C@H]3O[C@]3(C)CC/C=C(\C)CC[C@@H]12`, 1.43 µg/mL (≈ 5.76 µM).
In the case of `Cc1cc(N)c2ccccc2[n+]1CCCCCCCCCC[n+]1c(C)cc(N)c2ccccc21` it was 1.78 µg/mL; in that of `CCCCCCC[N+](CC)(CC)CCCCc1ccc(Cl)cc1`, 15.6 µg/mL; in that of `Cc1cccc(C)c1NC(=O)CN1CCN(CCCC(c2ccc(F)cc2)c2ccc(F)cc2)CC1`, 5.27 µg/mL (≈ 10.7 µM).
`Clc1ccc(COC(Cn2ccnc2)c2ccc(Cl)cc2Cl)cc1` (stereo not drawn): the IC90 was 1.98 µg/mL (≈ 5.18 µM).
In the case of `OC(c1cc(C(F)(F)F)nc2c(C(F)(F)F)cccc12)C1CCCCN1` (stereo not drawn), the 90% effect concentration (IC90) was 4.16 µg/mL (≈ 11 µM).
For `CS(=O)(=O)c1ccc([C@@H](O)[C@@H](CF)NC(=O)C(Cl)Cl)cc1`, the concentration for an effect of 90% (IC90) was 2.7 µg/mL (≈ 7.53 µM).
For `CN1C[C@H](CNC(=O)OCc2ccccc2)C[C@@H]2c3cccc4c3c(cn4C)C[C@H]21`, the IC90 is 5.85 µg/mL (≈ 14.5 µM).
In the case of `CN(C)[C@@H]1C(=O)C(C(N)=O)=C(O)[C@@]2(O)C(=O)C3=C(O)c4c(O)cccc4[C@@](C)(O)[C@H]3C[C@@H]12` it was 6.54 µg/mL (≈ 14.7 µM).
As for `CN1CCCC(CC2c3ccccc3Sc3ccccc32)C1` (stereo not drawn), the IC90 was 10.4 µg/mL (≈ 33.7 µM).
For `Clc1ccc(C(Cn2ccnc2)OCc2csc3c(Cl)cccc23)c(Cl)c1` (stereo not drawn), the IC90 is 3.41 µg/mL (≈ 7.8 µM).
In the case of `CN(C)CCCN1c2ccccc2Sc2ccc(Cl)cc21` it was 7.45 µg/mL (≈ 23.4 µM); in that of `OCCN1CCN(CC/C=C2/c3ccccc3Sc3ccc(C(F)(F)F)cc32)CC1`, 5.46 µg/mL (≈ 12.6 µM).
With `O=C(N[C@H](CO)[C@H](O)c1ccc([N+](=O)[O-])cc1)C(Cl)Cl` the figure was 1.06 µg/mL (≈ 3.29 µM).
In the case of `OCCN1CCN(CCCN2c3ccccc3Sc3ccc(Cl)cc32)CC1` it was 11.7 µg/mL (≈ 28.9 µM).
Consider `O=C1OCCN1/N=C/c1ccc([N+](=O)[O-])o1`, for which the IC90 is 5.4 µg/mL (≈ 24 µM).
For `Clc1ccc(C(Cn2ccnc2)OCc2c(Cl)cccc2Cl)c(Cl)c1` (stereo not drawn), the 90% effect concentration (IC90) is 2.51 µg/mL (≈ 6.04 µM).
Regarding `C[n+]1cc2c3c(ccc2c2ccc4cc5c(cc4c21)OCO5)OCO3`, the 90% effect concentration (IC90) was 7.62 µg/mL.
With `CCC(C)N1CCC2(CC1)N=c1c(c3c4c5c(C)c(O)c3c(O)c1=NC(=O)/C(C)=C/C=C/[C@H](C)[C@H](O)[C@@H](C)[C@@H](O)[C@@H](C)[C@H](OC(C)=O)[C@H](C)[C@@H](OC)/C=C/O[C@@](C)(O5)C4=O)N2` (stereo partly drawn), the concentration for an effect of 90% (IC90) was 0.04 µg/mL (≈ 0.0472 µM).
For the compound `Fc1ccc(C(c2ccc(F)cc2)N2CCN(C/C=C/c3ccccc3)CC2)cc1`, the IC90 is 6.62 µg/mL (≈ 16.4 µM).
As to `CC[C@@]1([C@@H]2O[C@@H]([C@H]3O[C@@](O)(CO)[C@H](C)C[C@@H]3C)C[C@@H]2C)CC[C@H]([C@]2(C)CC[C@]3(C[C@H](O)[C@@H](C)[C@@H]([C@@H](C)[C@@H](OC)[C@H](C)C(=O)O)O3)O2)O1`, the IC90 was 4.12 µg/mL (≈ 6.15 µM).
In the case of `Clc1ccccc1C(c1ccccc1)(c1ccccc1)n1ccnc1`, the IC90 is 5.36 µg/mL (≈ 15.6 µM).
As to `Clc1ccc(CSC(Cn2ccnc2)c2ccc(Cl)cc2Cl)cc1` (stereo not drawn), the IC90 was 2.53 µg/mL (≈ 6.37 µM).
Turning to `COc1ccc(CCN2CCC(Nc3nc4ccccc4n3Cc3ccc(F)cc3)CC2)cc1`, the IC90 was 6.79 µg/mL (≈ 14.8 µM).
`CCN(CC)C(=S)SSC(=S)N(CC)CC`: the IC90 is 0.164 µg/mL (≈ 0.553 µM).
For the compound `CNc1ncnc2c1ncn2[C@@H]1O[C@H](CO)[C@@H](O)[C@H]1O`, the IC90 is 0.822 µg/mL (≈ 2.92 µM).
As to `CCn1cc(C(=O)O)c(=O)c2cc(F)c(N3CCNCC3)nc21`, the IC90 was 4.1 µg/mL (≈ 12.8 µM).
Consider `CNCCC=C1c2ccccc2C=Cc2ccccc21`, for which the IC90 was 17.1 µg/mL (≈ 65.3 µM).
With `Clc1ccc(CCC(Cn2ccnc2)Sc2c(Cl)cccc2Cl)cc1` (stereo not drawn) the figure was 1.61 µg/mL (≈ 3.9 µM); with `CN(C)/N=N/c1nc[nH]c1C(N)=O`, 0.639 µg/mL (≈ 3.51 µM); with `NNC(=O)c1ccncc1`, 10.4 µg/mL (≈ 75.5 µM).
